# Values of other authors as cited in patent publication US20150313904A1 (Teva Pharmaceuticals Ltd., priority 2014, published 2015).
# System: Crohn's disease patients
# Settings: azathioprine-treated patients; Summers et al. 1979
compound,measurement,value
Cn1cnc([N+](=O)[O-])c1Sc1ncnc2nc[nH]c12 [azathioprine],time of maximum decrease in the mean CDAI score,9 weeks
